Molecular target: T1, PIP4K2C (Homo sapiens, UniProt Q8TBX8)
T1 sequence (Q8TBX8 1-421): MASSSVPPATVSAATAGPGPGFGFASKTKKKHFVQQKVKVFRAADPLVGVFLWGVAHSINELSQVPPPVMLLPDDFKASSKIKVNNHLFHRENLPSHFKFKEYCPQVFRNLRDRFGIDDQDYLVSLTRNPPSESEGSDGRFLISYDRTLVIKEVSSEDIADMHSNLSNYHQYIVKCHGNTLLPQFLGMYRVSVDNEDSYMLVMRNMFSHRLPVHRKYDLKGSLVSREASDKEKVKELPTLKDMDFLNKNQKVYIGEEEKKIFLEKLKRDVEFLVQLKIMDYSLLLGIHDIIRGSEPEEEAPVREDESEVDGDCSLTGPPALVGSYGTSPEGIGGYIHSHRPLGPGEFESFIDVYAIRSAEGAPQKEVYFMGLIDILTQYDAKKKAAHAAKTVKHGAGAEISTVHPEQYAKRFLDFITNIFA
Test: HiBiT PIP4K2C degradation assay in MOLT-4 cells (endogenous PIP4K2C C-terminally tagged with HiBiT)
Assay type: cell-based
Design: untagged in primary human PBMCs and monocyte-derived dendritic cells
Settings: 6 hours of incubation time, rather than 24 hours; MOLT-4, top concentration 10 micromolar; read-out: HiBIT-degradation MOLT4 PIP4k2C DC50 (6 hours, marked *)
Procedure, shortened: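 MOLT-4 cells with endogenous PIP4K2C C-terminally HiBiT-tagged by CRISPR were treated with a 10-point, 3-fold dilution series from 10 micromolar, in duplicate, for 24 h or 6 h at 37 C. Remaining tagged protein read by HiBiT lytic luminescence; DC50 from Hill-equation fit.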

How did the DC50 turn out when `O=C1CC[C@@H](Nc2ccc(C3CCN([C@H]4CC[C@H](NC(=O)[C@H]5CC[C@H](Nc6ncc(F)c(-c7cccc(-c8ccc[nH]c8=O)c7)n6)CC5)CC4)CC3)c(F)c2)C(=O)N1` (single isomer, unassigned) [Compound 419] was run?
The DC50 was less than 500 nM.

How did the DC50 turn out when `O=C1CC[C@@H](Nc2ccc(N3CCN([C@H]4CC[C@H](NC(=O)[C@H]5CC[C@H](Nc6ncc(F)c(-c7cccc(-n8ccccc8=O)c7)n6)CC5)CC4)CC3)c(F)c2)C(=O)N1` (single isomer, unassigned) [Compound 420] was run?
Its DC50 is less than 500 nM.

Which DC50 does the source give for `O=C1CC[C@@H](Nc2ccc(C3CCN(CC4CCN(C(=O)[C@H]5CC[C@H](Nc6ncc(F)c(-c7cccc(-c8ccc[nH]c8=O)c7)n6)CC5)CC4)CC3)c(F)c2)C(=O)N1` (single isomer, unassigned) [Compound 421] here?
The DC50 was less than 500 nM.

`Cn1nc([C@H]2CCC(=O)NC2=O)c2ccc(C3CCN(CC4CCN(C(=O)[C@H]5CC[C@H](Nc6ncc(F)c(-c7cccc(-n8ccccc8=O)c7)n6)CC5)CC4)CC3)cc21` (single isomer, unassigned) [Compound 422] was tested. Which DC50 did it give?
Its DC50 is less than 500 nM.

`O=C1CC[C@H](Nc2ccc(N3CCN(CC4(O)CCN(C(=O)[C@H]5CC[C@H](Nc6ncc(F)c(-c7cccc(-n8ccccc8=O)c7)n6)CC5)CC4)CC3)c(F)c2)C(=O)N1` (single isomer, unassigned) [Compound 423] was tested. Which DC50 did it give?
Its DC50 is less than 500 nM.

With `O=C1CC[C@@H](Nc2ccc(N3CCN([C@H]4CC[C@H](NC(=O)[C@H]5CC[C@H](Nc6ncc(F)c(-c7cccc(-c8ccc[nH]c8=O)c7)n6)CC5)CC4)CC3)c(F)c2)C(=O)N1` (single isomer, unassigned) [Compound 432] as the compound, how does the DC50 read?
Its DC50 is less than 500 nM.

`O=C1CC[C@H](Nc2ccc(C3CCN([C@H]4CC[C@H](NC(=O)[C@H]5CC[C@H](Nc6ncc(F)c(-c7cccc(-n8ccccc8=O)c7)n6)CC5)CC4)CC3)c(F)c2)C(=O)N1` (single isomer, unassigned) [Compound 434] was tested. Which DC50 did it give?
The DC50 was less than 500 nM.

Which DC50 does the source give for `O=C1CC[C@H](Nc2ccc(N3CCN([C@H]4CC[C@H](NC(=O)[C@H]5CC[C@H](Nc6ncc(F)c(-c7cccc(-n8ccccc8=O)c7)n6)CC5)CC4)CC3)c(F)c2)C(=O)N1` (single isomer, unassigned) [Compound 436] here?
The DC50 was less than 500 nM.

`O=C1CC[C@H](Nc2ccc(C3CCN(CC4CCN(C(=O)[C@H]5CC[C@H](Nc6ncc(F)c(-c7cccc(-c8ccc[nH]c8=O)c7)n6)CC5)CC4)CC3)c(F)c2)C(=O)N1` (single isomer, unassigned) [Compound 437] was tested. Which DC50 did it give?
Its DC50 is less than 500 nM.

With `Cn1nc([C@@H]2CCC(=O)NC2=O)c2ccc(C3CCN(CC4CCN(C(=O)[C@H]5CC[C@H](Nc6ncc(F)c(-c7cccc(-n8ccccc8=O)c7)n6)CC5)CC4)CC3)cc21` (single isomer, unassigned) [Compound 438] as the compound, how does the DC50 read?
The DC50 was less than 500 nM.

For `O=C1CC[C@@H](Nc2ccc(N3CCN(CC4(O)CCN(C(=O)[C@H]5CC[C@H](Nc6ncc(F)c(-c7cccc(-n8ccccc8=O)c7)n6)CC5)CC4)CC3)c(F)c2)C(=O)N1` (single isomer, unassigned) [Compound 439], which DC50 is on record?
Its DC50 is less than 500 nM.

With `O=C1CC[C@H](Nc2ccc(N3CCN([C@H]4CC[C@H](NC(=O)[C@H]5CC[C@H](Nc6ncc(F)c(-c7cccc(-c8ccc[nH]c8=O)c7)n6)CC5)CC4)CC3)c(F)c2)C(=O)N1` (single isomer, unassigned) [Compound 441] as the compound, how does the DC50 read?
Its DC50 is less than 500 nM.

`O=C1CC[C@@H](Nc2ccc(C3CCN(CC4(O)CCN(C(=O)[C@H]5CC[C@H](Nc6ncc(F)c(-c7cccc(-n8ccccc8=O)c7)n6)CC5)CC4)CC3)c(F)c2)C(=O)N1` (single isomer, unassigned) [Compound 442] was tested. Which DC50 did it give?
Its DC50 is less than 500 nM.

For `O=C1CC[C@H](Nc2ccc(C3CCN(CC4(O)CCN(C(=O)[C@H]5CC[C@H](Nc6ncc(F)c(-c7cccc(-n8ccccc8=O)c7)n6)CC5)CC4)CC3)c(F)c2)C(=O)N1` (single isomer, unassigned) [Compound 443], which DC50 is on record?
The DC50 was less than 500 nM.

For `O=C1CC[C@@H](Nc2ccc(N3CCN([C@H]4CC[C@H](C(=O)N[C@H]5CC[C@H](Nc6ncc(F)c(-c7cccc(N8CCCCC8=O)c7)n6)CC5)CC4)CC3)c(F)c2)C(=O)N1` (single isomer, unassigned) [Compound 445], which DC50 is on record?
Its DC50 is less than 500 nM.

Which DC50 does the source give for `O=C1CC[C@@H](Nc2ccc(C3CCN(CC4CCN(C(=O)[C@H]5CC[C@H](Nc6ncc(F)c(-c7cccc(N8CCCCC8=O)c7)n6)CC5)CC4)CC3)c(F)c2)C(=O)N1` (single isomer, unassigned) [Compound 448] here?
Its DC50 is less than 500 nM.

With `O=C1CC[C@H](Nc2ccc(C3CCN(CC4CCN(C(=O)[C@H]5CC[C@H](Nc6ncc(F)c(-c7cccc(N8CCCCC8=O)c7)n6)CC5)CC4)CC3)c(F)c2)C(=O)N1` (single isomer, unassigned) [Compound 449] as the compound, how does the DC50 read?
Its DC50 is less than 500 nM.

`O=C1CC[C@@H](Nc2ccc(C3CCN(CC4CCN(C(=O)[C@H]5CC[C@H](Nc6ncc(F)c(-c7cccc(-n8ccccc8=O)c7)n6)CC5)CC4)CC3)c(F)c2)C(=O)N1` (single isomer, unassigned) [Compound 455] was tested. Which DC50 did it give?
The DC50 was less than 500 nM.

`O=C1CC[C@H](Nc2ccc(C3CCN(CC4CCN(C(=O)[C@H]5CC[C@H](Nc6ncc(F)c(-c7cccc(-n8ccccc8=O)c7)n6)CC5)CC4)CC3)c(F)c2)C(=O)N1` (single isomer, unassigned) [Compound 456] was tested. Which DC50 did it give?
The DC50 was less than 500 nM.

With `O=C1CC[C@H](Nc2ccc(N3CCN([C@H]4CC[C@H](C(=O)N[C@H]5CC[C@H](Nc6ncc(F)c(-c7cccc(N8CCCCC8=O)c7)n6)CC5)CC4)CC3)c(F)c2)C(=O)N1` (single isomer, unassigned) [Compound 458] as the compound, how does the DC50 read?
Its DC50 is less than 500 nM.

For `O=C1CC[C@@H](Nc2ccc(N3CCN(C[C@H]4CC[C@H](CNC(=O)[C@H]5CC[C@H](Nc6ncc(F)c(-c7cccc(-n8ccccc8=O)c7)n6)CC5)CC4)CC3)c(F)c2)C(=O)N1` (single isomer, unassigned) [Compound 459], which DC50 is on record?
The DC50 was less than 500 nM.

How did the DC50 turn out when `O=C1CC[C@H](Nc2ccc(N3CCN(C[C@H]4CC[C@H](CNC(=O)[C@H]5CC[C@H](Nc6ncc(F)c(-c7cccc(-n8ccccc8=O)c7)n6)CC5)CC4)CC3)c(F)c2)C(=O)N1` (single isomer, unassigned) [Compound 460] was run?
Its DC50 is less than 500 nM.

`O=C1CC[C@@H](Nc2ccc(N3CCN([C@H]4CC[C@H](C(=O)N[C@H]5CC[C@H](Nc6ncc(F)c(-c7cccc(N8CCCOC8=O)c7)n6)CC5)CC4)CC3)c(F)c2)C(=O)N1` (single isomer, unassigned) [Compound 461] was tested. Which DC50 did it give?
The DC50 was less than 500 nM.

How did the DC50 turn out when `O=C1CC[C@H](Nc2ccc(N3CCN([C@H]4CC[C@H](C(=O)N[C@H]5CC[C@H](Nc6ncc(F)c(-c7cccc(N8CCCOC8=O)c7)n6)CC5)CC4)CC3)c(F)c2)C(=O)N1` (single isomer, unassigned) [Compound 462] was run?
Its DC50 is less than 500 nM.

How did the DC50 turn out when `O=C1CCC(Nc2ccc(C3CCN([C@H]4CC[C@H](C(=O)N[C@H]5CC[C@H](Nc6ncc(F)c(-c7cccc(N8CCCCC8=O)c7)n6)CC5)CC4)CC3)c(F)c2)C(=O)N1` (single isomer, unassigned) [Compound 592] was run?
The DC50 was less than 500 nM.

Which DC50 does the source give for `O=C1CC[C@@H](Nc2ccc(C3CCN([C@H]4CC[C@H](C(=O)N[C@H]5CC[C@H](Nc6ncc(F)c(-c7cccc(N8CCCCC8=O)c7)n6)CC5)CC4)CC3)c(F)c2)C(=O)N1` (single isomer, unassigned) [Compound 593] here?
The DC50 was less than 500 nM.

How did the DC50 turn out when `O=C1CC[C@H](Nc2ccc(N3CCC(N4CCC(O)(C(=O)N[C@H]5CC[C@H](Nc6ncc(F)c(-c7cccc(-n8ccccc8=O)c7)n6)CC5)CC4)CC3)c(F)c2)C(=O)N1` (single isomer, unassigned) [Compound 594] was run?
Its DC50 is less than 500 nM.

For `O=C1CC[C@@H](Nc2ccc(N3CCC(N4CCC(O)(C(=O)N[C@H]5CC[C@H](Nc6ncc(F)c(-c7cccc(-n8ccccc8=O)c7)n6)CC5)CC4)CC3)c(F)c2)C(=O)N1` (single isomer, unassigned) [Compound 595], which DC50 is on record?
Its DC50 is less than 500 nM.

How did the DC50 turn out when `O=C1CC[C@H](Nc2ccc(C3CCN(CC4CCN(C(=O)[C@H]5CC[C@H](Nc6ncc(F)c(-c7cccc(N8CCCOC8=O)c7)n6)CC5)CC4)CC3)c(F)c2)C(=O)N1` (single isomer, unassigned) [Compound 600] was run?
The DC50 was less than 500 nM.

`O=C1CC[C@@H](Nc2ccc(C3CCN(CC4CCN(C(=O)[C@H]5CC[C@H](Nc6ncc(F)c(-c7cccc(N8CCCOC8=O)c7)n6)CC5)CC4)CC3)c(F)c2)C(=O)N1` (single isomer, unassigned) [Compound 601] was tested. Which DC50 did it give?
The DC50 was less than 500 nM.

For `O=C1CC[C@@H](Nc2ccc(N3CCN([C@H]4CC[C@H](C(=O)N[C@H]5CC[C@H](Nc6ncc(F)c(-c7cccc(-n8ccccc8=O)c7)n6)CC5)CC4)CC3)c(F)c2)C(=O)N1` (single isomer, unassigned) [Compound 602], which DC50 is on record?
Its DC50 is less than 500 nM.

With `O=C1CC[C@H](Nc2ccc(N3CCN([C@H]4CC[C@H](C(=O)N[C@H]5CC[C@H](Nc6ncc(F)c(-c7cccc(-n8ccccc8=O)c7)n6)CC5)CC4)CC3)c(F)c2)C(=O)N1` (single isomer, unassigned) [Compound 603] as the compound, how does the DC50 read?
The DC50 was less than 500 nM.

How did the DC50 turn out when `Cn1nc([C@@H]2CCC(=O)NC2=O)c2ccc(C3CCN(CC4CCN(C(=O)O[C@H]5CC[C@H](Nc6ncc(F)c(-c7cccc(-n8ccccc8=O)c7)n6)CC5)CC4)CC3)cc21` (single isomer, unassigned) [Compound 638] was run?
Its DC50 is less than 500 nM.

How did the DC50 turn out when `Cn1nc([C@H]2CCC(=O)NC2=O)c2ccc(C3CCN(CC4CCN(C(=O)O[C@H]5CC[C@H](Nc6ncc(F)c(-c7cccc(-n8ccccc8=O)c7)n6)CC5)CC4)CC3)cc21` (single isomer, unassigned) [Compound 639] was run?
The DC50 was less than 500 nM.
